Counter-ions that a name gives are not always drawn.
Legend:
[1] = biological target: T1, 5-Lipoxygenase enzyme from RBL-1 cells (Rattus norvegicus, UniProt P12527); test: RBL-1 5-lipoxygenase screen (cell free); format: biochemical; conditions: read-out: percentage inhibition of 5-lipoxygenase
T1 construct: prepared as a 10,000 g supernatant from RBL-1 cells; endogenous in cells; host or cells: RBL-1 cells (10,000 g supernatant)
T1 sequence (P12527 1-673): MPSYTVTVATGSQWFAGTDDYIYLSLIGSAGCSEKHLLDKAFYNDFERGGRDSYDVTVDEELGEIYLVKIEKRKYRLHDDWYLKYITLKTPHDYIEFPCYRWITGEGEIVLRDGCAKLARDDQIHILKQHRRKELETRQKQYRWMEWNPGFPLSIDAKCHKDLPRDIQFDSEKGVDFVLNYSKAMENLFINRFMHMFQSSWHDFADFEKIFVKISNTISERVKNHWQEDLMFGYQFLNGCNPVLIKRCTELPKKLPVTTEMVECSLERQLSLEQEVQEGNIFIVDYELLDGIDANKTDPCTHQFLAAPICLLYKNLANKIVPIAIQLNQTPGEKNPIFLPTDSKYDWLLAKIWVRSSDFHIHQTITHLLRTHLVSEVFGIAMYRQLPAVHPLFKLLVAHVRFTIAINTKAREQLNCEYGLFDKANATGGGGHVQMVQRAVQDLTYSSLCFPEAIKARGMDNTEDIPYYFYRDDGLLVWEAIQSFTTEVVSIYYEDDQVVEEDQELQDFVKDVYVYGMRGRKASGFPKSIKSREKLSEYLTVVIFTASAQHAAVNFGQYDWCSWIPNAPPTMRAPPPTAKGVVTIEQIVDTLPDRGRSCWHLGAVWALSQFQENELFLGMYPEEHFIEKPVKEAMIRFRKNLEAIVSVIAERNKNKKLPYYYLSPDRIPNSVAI
Experimental: RBL-1 5-LIPOXYGENASE SCREEN
5-Lipoxygenase enzyme was prepared as a 10,000 g supernatant from RBL-1 cells by the method of Jakschik [Jakschik, B. A., F. F. Sun, L. M. Lee, and M. M. Steinhoff, 1980, Biochem. Biophys. Res. Comm. 95, 103]. The 10,000 g supernatant was diluted with homogenization buffer to the equivalent of 1.5-2.5×10^7 cells. ml^-1 and made 2 mM with respect to CaCl2. Aliquots of 0.5 ml were then dispensed into tubes, and incubated at 29° C. with 5 μl ethanol or compound in ethanol at the desired concentration for 2 min. Then […] arachidonic acid was added in buffer to give a final concentration of 6.3 μM and 0.2 μCi per incubation, and the reaction continued at 29° C. for 2 min. The reaction was terminated by adding 1 ml of acetone and cooling on ice, 0.5 ml of ice-cold saline and 10 μl of 2N formic acid were added, and the mixture was extracted with 2×2 ml of chloroform. The extract was stored under N2 at -20° C. until analysis by chromatography. Activity was measured as the percentage of total radioactivity found in 5-HETE and 5,12-diHETE, and inhibition calculated as the decrease in formation of the sum of these two species in compound-treated incubates relative to control incubates.
This test is used to show inhibition of the 5-lipoxygenase enzyme in a mammalian RBL-1 cell free 5-lipoxygenase assay.

[2] = tested on: carrageenin-induced pleurisy; test: Carrageenin-induced pleurisy in the rat; format: in vivo; conditions: dose of 25 mg/kg p.o., given 1 hour before and 24 and 48 hours after carrageenin
Experimental: CARRAGEENIN-INDUCED PLEURISY IN THE RAT
This model of monocyte accumulation is based on the method of R. Vinegar, J. F. Truax, J. L. Selph and F. A. Voelker [Federation Proceeding 41, 2588-2595, 1982].
0.2 ml of a 2.0% solution of λ-carrageenin (Viscarin 402) in saline was injected intrapleurally in anaesthetised rats (wt. approx. 175-200 g). Compounds were administered 1 hour before carrageenin and at 24 and 48 hours after carrageenin. 72 hours after carrageenin injection, 4.0 ml of EDTA solution (5 g EDTA in 100 ml of 0.9% saline and 325 mg phenol red added together with saline to 1 liter) was injected intrapleurally after killing the animals, and the exudate removed with a syringe through the diaphragm. Exudate volume was measured spectrophotometrically (560 nm) and cellular content estimated with a DNA assay [Karsten U. and Wollenberger A. Anal. Biochem. 77, 464-470, 1977].
This test is used to indicate anti-inflammatory activity against carrageenin-induced pleurisy in the rat. The compound of Example 1 was active at a dose of 25 mg/kg (p.o.).

SMILES | inhibition at 20 µM ([1]; 20 μM concentration) [%] | inhibition at 1 µM ([1]; 1 μM concentration) [%] | anti-inflammatory activity against carrageenin-induced pleurisy in the rat [2]
Cc1ccc(O)c2[nH]c(C(F)(F)F)nc12 [Example 2, 4-Hydroxy-7methyl-2-trifluoromethylbenzimidazole hydrochloride hydrate (4:4:1)] | 68 |  | 
Cc1cc(C(C)(C)C)c(O)c2[nH]c(C(F)(F)F)nc12 [Example 1, 5-tert-Butyl-4-hydroxy-7-methyl-2-trifluoro-methylbenzimidazole] |  | 93 | active

— patent US4755525A, “2-(fluoroalkyl)-benzimidazoles as inhibitors of 5-lipoxygenase” (Beecham Group p.l.c., priority 1985, dated 1988)
